Data taken from ChEMBL document CHEMBL1201862, “PubChem BioAssay data set” (2004).
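A five-concentration, 48-hour dose response in 96-well plates underlies each endpoint, interpolated linearly between surrounding concentrations. The concentration for 50% growth inhibition is given as GI50.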 Active and inactive are the calls of the source. Cut-off read from the data, not from the text of the source: active = GI50 up to about 1.1 µM and inactive = higher.

What was measured:
Test in all cases: DTP human tumour cell line panel, 48 h
[1] = test system: NCI-H226
[2] = test system: BT-549
[3] = test system: SNB-75
[4] = test system: MDA-MB-231
[5] = test system: EKVX
[6] = test system: NCI/ADR-RES
[7] = test system: MOLT-4
[8] = test system: RPMI-8226
[9] = test system: HOP-62
[10] = test system: SNB-19
[11] = test system: CCRF-CEM
[12] = test system: NCI-H23
[13] = test system: HCC 2998
[14] = test system: SW-620
[15] = test system: A498
[16] = test system: KM12
[17] = test system: OVCAR-8
[18] = test system: A549
[19] = test system: HT-29
[20] = test system: PC-3

CCCc1c(O)c(=O)c2c(OC)cc(OC)c3c4c(OC)cc(OC)c5c(=O)c(O)c(CCC)c(c1c23)c54
GI50 [1]: 1.63 µM (inactive)
GI50 [2]: 0.34 µM (active)
GI50 [3]: 0.183 µM (active)
GI50 [4]: 1.56 µM (inactive)
GI50 [5]: 1.06 µM (active)
GI50 [6]: 0.9 µM (active)
GI50 [7]: 0.0883 µM (active)
GI50 [8]: 0.192 µM (active)
GI50 [9]: 0.543 µM (active)
GI50 [10]: 0.351 µM (active)
GI50 [11]: 0.181 µM (active)
GI50 [12]: 0.474 µM (active)
GI50 [13]: 1.76 µM (inactive)
GI50 [14]: 1.13 µM (inactive)
GI50 [15]: 0.678 µM (active)
GI50 [16]: 0.458 µM (active)
GI50 [17]: 0.513 µM (active)
GI50 [18]: 0.386 µM (active)
GI50 [19]: 0.729 µM (active)
GI50 [20]: 0.443 µM (active)

Nc1ncnc2c1ncn2C(=O)NC12CC3CC(CC(C3)C1)C2
GI50 [1]: > 100 µM (inactive)
GI50 [2]: > 100 µM (inactive)
GI50 [3]: 84.7 µM (inactive)
GI50 [4]: > 100 µM (inactive)
GI50 [5]: > 100 µM (inactive)
GI50 [6]: > 100 µM (inactive)
GI50 [7]: > 100 µM (inactive)
GI50 [8]: > 100 µM (inactive)
GI50 [9]: > 100 µM (inactive)
GI50 [10]: > 100 µM (inactive)
GI50 [11]: 44 µM (inactive)
GI50 [12]: > 100 µM (inactive)
GI50 [13]: > 100 µM (inactive)
GI50 [14]: > 100 µM (inactive)
GI50 [15]: > 100 µM (inactive)
GI50 [16]: > 100 µM (inactive)
GI50 [17]: > 100 µM (inactive)
GI50 [18]: > 100 µM (inactive)
GI50 [19]: > 100 µM (inactive)
GI50 [20]: > 100 µM (inactive)

O=S(=O)(c1ccccc1)[C@H]1[C@@H]2O[C@@H]2C[C@@H]1O
GI50 [1]: > 100 µM (inactive)
GI50 [2]: > 100 µM (inactive)
GI50 [3]: 47.4 µM (inactive)
GI50 [4]: > 100 µM (inactive)
GI50 [5]: > 100 µM (inactive)
GI50 [6]: > 100 µM (inactive)
GI50 [7]: > 100 µM (inactive)
GI50 [8]: > 100 µM (inactive)
GI50 [9]: > 100 µM (inactive)
GI50 [10]: > 100 µM (inactive)
GI50 [11]: > 100 µM (inactive)
GI50 [12]: > 100 µM (inactive)
GI50 [13]: > 100 µM (inactive)
GI50 [14]: > 100 µM (inactive)
GI50 [15]: > 100 µM (inactive)
GI50 [16]: > 100 µM (inactive)
GI50 [17]: > 100 µM (inactive)
GI50 [18]: > 100 µM (inactive)
GI50 [19]: > 100 µM (inactive)
GI50 [20]: > 100 µM (inactive)

COc1ccc(C(=O)/C=C/c2cc(O)c(O)cc2F)c(OC)c1
GI50 [1]: 13.2 µM (inactive)
GI50 [2]: 6.52 µM (inactive)
GI50 [3]: 4.67 µM (inactive)
GI50 [4]: 13.6 µM (inactive)
GI50 [5]: 14.4 µM (inactive)
GI50 [6]: 7.85 µM (inactive)
GI50 [7]: 3.71 µM (inactive)
GI50 [8]: 3.34 µM (inactive)
GI50 [9]: 6.58 µM (inactive)
GI50 [10]: 9.79 µM (inactive)
GI50 [11]: 0.783 µM (active)
GI50 [12]: 5.3 µM (inactive)
GI50 [13]: 2.27 µM (inactive)
GI50 [14]: 6.82 µM (inactive)
GI50 [15]: 12.1 µM (inactive)
GI50 [16]: 5.16 µM (inactive)
GI50 [17]: 14.5 µM (inactive)
GI50 [18]: 10.5 µM (inactive)
GI50 [19]: 7.48 µM (inactive)
GI50 [20]: 5.78 µM (inactive)

COC(=O)c1ccc(C)cc1CC1Cc2c(C)cccc2C1=O (stereo not given)
GI50 [1]: 13.7 µM (inactive)
GI50 [2]: 4.99 µM (inactive)
GI50 [3]: 4.16 µM (inactive)
GI50 [4]: 2.32 µM (inactive)
GI50 [5]: 18 µM (inactive)
GI50 [6]: 3.35 µM (inactive)
GI50 [7]: 5.56 µM (inactive)
GI50 [8]: 4.65 µM (inactive)
GI50 [9]: 13.6 µM (inactive)
GI50 [10]: 9.89 µM (inactive)
GI50 [11]: 7.05 µM (inactive)
GI50 [12]: 12.4 µM (inactive)
GI50 [13]: 11.1 µM (inactive)
GI50 [14]: 3.85 µM (inactive)
GI50 [15]: 4.95 µM (inactive)
GI50 [16]: 3.4 µM (inactive)
GI50 [17]: 14.3 µM (inactive)
GI50 [18]: 7.57 µM (inactive)
GI50 [19]: 3.04 µM (inactive)
GI50 [20]: 6.5 µM (inactive)

CC(C)N(CC(=O)O)CC(=O)O
GI50 [1]: > 100 µM (inactive)
GI50 [2]: > 100 µM (inactive)
GI50 [3]: > 100 µM (inactive)
GI50 [4]: > 100 µM (inactive)
GI50 [5]: > 100 µM (inactive)
GI50 [6]: > 100 µM (inactive)
GI50 [7]: > 100 µM (inactive)
GI50 [8]: > 100 µM (inactive)
GI50 [9]: > 100 µM (inactive)
GI50 [10]: > 100 µM (inactive)
GI50 [11]: > 100 µM (inactive)
GI50 [12]: > 100 µM (inactive)
GI50 [13]: > 100 µM (inactive)
GI50 [14]: > 100 µM (inactive)
GI50 [15]: > 100 µM (inactive)
GI50 [16]: > 100 µM (inactive)
GI50 [17]: > 100 µM (inactive)
GI50 [18]: > 100 µM (inactive)
GI50 [19]: > 100 µM (inactive)
GI50 [20]: > 100 µM (inactive)

c1ccc(CSc2ccccc2CN2CCN(Cc3ccccc3SCc3ccccc3)CCN(Cc3ccccc3SCc3ccccc3)CC2)cc1
GI50 [1]: 1.81 µM (inactive)
GI50 [2]: 1.87 µM (inactive)
GI50 [3]: 1.6 µM (inactive)
GI50 [4]: 1.51 µM (inactive)
GI50 [5]: 1.2 µM (inactive)
GI50 [6]: 2.44 µM (inactive)
GI50 [7]: 1.63 µM (inactive)
GI50 [8]: 0.384 µM (active)
GI50 [9]: 1.93 µM (inactive)
GI50 [10]: 1.92 µM (inactive)
GI50 [11]: 2.35 µM (inactive)
GI50 [12]: 0.951 µM (active)
GI50 [13]: 1.09 µM (active)
GI50 [14]: 2.38 µM (inactive)
GI50 [15]: 2.25 µM (inactive)
GI50 [16]: 1.58 µM (inactive)
GI50 [17]: 1.22 µM (inactive)
GI50 [18]: 2.35 µM (inactive)
GI50 [19]: 0.499 µM (active)
GI50 [20]: 1.26 µM (inactive)

C(=N\N=C1NCCCN1)/c1ccc2ccccc2c1
GI50 [1]: 12.4 µM (inactive)
GI50 [2]: 17.4 µM (inactive)
GI50 [3]: 3.97 µM (inactive)
GI50 [4]: 6.32 µM (inactive)
GI50 [5]: 14.1 µM (inactive)
GI50 [6]: 19.4 µM (inactive)
GI50 [7]: 1.95 µM (inactive)
GI50 [8]: 4.7 µM (inactive)
GI50 [9]: 12.1 µM (inactive)
GI50 [10]: 14.7 µM (inactive)
GI50 [11]: 11.2 µM (inactive)
GI50 [12]: 17.6 µM (inactive)
GI50 [13]: 2.64 µM (inactive)
GI50 [14]: 12.4 µM (inactive)
GI50 [15]: 3.01 µM (inactive)
GI50 [16]: 13.6 µM (inactive)
GI50 [17]: 14.7 µM (inactive)
GI50 [18]: 9.23 µM (inactive)
GI50 [19]: 8.39 µM (inactive)
GI50 [20]: 10.3 µM (inactive)

CCCC/C=C/C/C=C/CCCCCCCCC(=O)OCC1CCCN2CCCCC12 (stereo not given)
GI50 [1]: > 100 µM (inactive)
GI50 [2]: 15.6 µM (inactive)
GI50 [3]: > 100 µM (inactive)
GI50 [4]: > 100 µM (inactive)
GI50 [5]: 54.6 µM (inactive)
GI50 [6]: > 100 µM (inactive)
GI50 [7]: > 100 µM (inactive)
GI50 [8]: > 100 µM (inactive)
GI50 [9]: > 100 µM (inactive)
GI50 [10]: > 100 µM (inactive)
GI50 [11]: 28.5 µM (inactive)
GI50 [12]: > 100 µM (inactive)
GI50 [13]: > 100 µM (inactive)
GI50 [14]: > 100 µM (inactive)
GI50 [15]: > 100 µM (inactive)
GI50 [16]: > 100 µM (inactive)
GI50 [17]: > 100 µM (inactive)
GI50 [18]: > 100 µM (inactive)
GI50 [19]: > 100 µM (inactive)
GI50 [20]: > 100 µM (inactive)

COC(=O)[C@H](Cc1ccccc1)NC(=O)c1ccc(CNC(=O)/C=C/c2ccc(OCc3ccccc3)cc2)cc1
GI50 [1]: 21.3 µM (inactive)
GI50 [2]: 21.5 µM (inactive)
GI50 [3]: 13.8 µM (inactive)
GI50 [4]: 16.5 µM (inactive)
GI50 [5]: 25.7 µM (inactive)
GI50 [6]: 30.4 µM (inactive)
GI50 [7]: 6.17 µM (inactive)
GI50 [8]: 39 µM (inactive)
GI50 [9]: 12.6 µM (inactive)
GI50 [10]: 15.7 µM (inactive)
GI50 [11]: 17.4 µM (inactive)
GI50 [12]: 14.5 µM (inactive)
GI50 [13]: 24.3 µM (inactive)
GI50 [14]: > 47.4 µM (inactive)
GI50 [15]: 2.59 µM (inactive)
GI50 [16]: 19.1 µM (inactive)
GI50 [17]: 13.3 µM (inactive)
GI50 [18]: 27 µM (inactive)
GI50 [19]: 13.5 µM (inactive)
GI50 [20]: 14.7 µM (inactive)
